Blank lines part the entries; values can stand above or below the compound they belong to.
How the values were obtained:
P2X purinoceptor 3 = molecular target: T1, P2X purinoceptor 3 (Rattus norvegicus, UniProt P49654); experiment: Antagonist activity at rat P2X3 receptor expressed in CHO cells by FLIPR; assay type: functional, cell-based
T1 sequence (P49654 whole entry): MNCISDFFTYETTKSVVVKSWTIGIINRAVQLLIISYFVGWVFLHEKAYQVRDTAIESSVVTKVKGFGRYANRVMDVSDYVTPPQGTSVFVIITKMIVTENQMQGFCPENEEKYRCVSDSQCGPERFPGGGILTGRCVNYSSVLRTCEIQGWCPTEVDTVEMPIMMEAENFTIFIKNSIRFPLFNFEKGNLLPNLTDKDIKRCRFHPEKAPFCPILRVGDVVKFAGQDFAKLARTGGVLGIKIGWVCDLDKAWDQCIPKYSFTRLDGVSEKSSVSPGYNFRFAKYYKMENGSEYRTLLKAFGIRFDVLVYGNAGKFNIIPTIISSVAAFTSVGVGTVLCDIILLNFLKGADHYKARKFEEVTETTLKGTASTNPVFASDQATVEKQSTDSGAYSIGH

[1] = molecular target: T2, P2X2/P2X3 heterotrimeric receptor (Homo sapiens, UniProt P56373+Q9UBL9); experiment: Antagonist activity at human P2X2/3 receptor expressed in 1321n1c cells by FLIPR; assay type: functional, cell-based
T2 sequence (Q9UBL9 whole entry): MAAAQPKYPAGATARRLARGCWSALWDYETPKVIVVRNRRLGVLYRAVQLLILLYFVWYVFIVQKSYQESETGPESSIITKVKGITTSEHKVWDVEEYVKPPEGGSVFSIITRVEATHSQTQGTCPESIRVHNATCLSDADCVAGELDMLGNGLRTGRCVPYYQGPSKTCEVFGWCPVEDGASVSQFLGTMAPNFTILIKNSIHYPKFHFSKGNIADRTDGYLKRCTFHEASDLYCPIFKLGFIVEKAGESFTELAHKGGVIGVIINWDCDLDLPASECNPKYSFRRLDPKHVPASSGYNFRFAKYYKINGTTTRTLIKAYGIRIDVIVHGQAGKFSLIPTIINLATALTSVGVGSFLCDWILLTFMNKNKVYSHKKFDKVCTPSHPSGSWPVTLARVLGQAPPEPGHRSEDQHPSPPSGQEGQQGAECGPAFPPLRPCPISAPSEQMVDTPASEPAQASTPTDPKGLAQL
T2 sequence (P56373 whole entry): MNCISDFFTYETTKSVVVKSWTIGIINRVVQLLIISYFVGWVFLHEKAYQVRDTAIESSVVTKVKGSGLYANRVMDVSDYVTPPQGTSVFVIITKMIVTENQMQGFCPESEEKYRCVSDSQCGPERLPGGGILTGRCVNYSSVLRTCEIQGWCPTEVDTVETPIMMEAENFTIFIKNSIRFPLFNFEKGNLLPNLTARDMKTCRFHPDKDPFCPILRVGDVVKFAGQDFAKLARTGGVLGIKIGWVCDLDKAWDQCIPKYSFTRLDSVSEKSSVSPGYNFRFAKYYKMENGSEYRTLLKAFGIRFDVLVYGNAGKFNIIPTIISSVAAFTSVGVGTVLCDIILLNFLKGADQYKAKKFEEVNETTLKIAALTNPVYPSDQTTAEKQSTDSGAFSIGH

[2] = Cmax in rat at 2 mg/kg, po administered as single dose; assay type: ADME, organism-based; set-up: dose 2 mg/kg, route oral; settings: in vivo
[3] = Half life in rat at 2 mg/kg, iv administered as single dose; assay type: ADME, organism-based; set-up: dose 2 mg/kg, route intravenous; settings: in vivo
[4] = Half life in dog; assay type: ADME, organism-based, Canis lupus familiaris; settings: in vivo
[5] = Apparent permeability from apical to basolateral side of human Caco-2 cells; assay type: ADME, cell-based
[6] = AUC in rat at 2 mg/kg, iv administered as single dose; assay type: ADME, organism-based; set-up: dose 2 mg/kg, route intravenous; settings: plasma
P2X purinoceptor 5 = P2X purinoceptor 5 (Homo sapiens, UniProt Q93086); experiment: Antagonist activity at P2X5 receptor up to 10 uM; assay type: functional
[7] = Half life in rat at 2 mg/kg, po administered as single dose; assay type: ADME, organism-based; set-up: dose 2 mg/kg, route oral; settings: in vivo
Canis familiaris = organism: Canis familiaris; experiment: Clearance in dog; assay type: ADME, organism-based, Canis lupus familiaris; settings: in vivo
[8] = AUC in rat at 2 mg/kg, po administered as single dose; assay type: ADME, organism-based; set-up: dose 2 mg/kg, route oral; settings: plasma
[9] = Oral bioavailability in rat at 2 mg/kg administered as single dose; assay type: ADME, organism-based; settings: in vivo
Rattus norvegicus = experiment: Clearance in rat at 2 mg/kg, iv administered as single dose; assay type: ADME, organism-based; set-up: dose 2 mg/kg, route intravenous; settings: in vivo
[10] = Tmax in rat at 2 mg/kg, iv administered as single dose; assay type: ADME, organism-based; set-up: dose 2 mg/kg, route intravenous; settings: in vivo
[11] = Tmax in rat at 2 mg/kg, po administered as single dose; assay type: ADME, organism-based; set-up: dose 2 mg/kg, route oral; settings: in vivo
[12] = Oral bioavailability in dog; assay type: ADME, organism-based, Canis lupus familiaris; settings: in vivo
[13] = Cmax in rat at 2 mg/kg, iv administered as single dose; assay type: ADME, organism-based; set-up: dose 2 mg/kg, route intravenous; settings: in vivo

Sequence of P2X purinoceptor 5 (Q93086 whole entry): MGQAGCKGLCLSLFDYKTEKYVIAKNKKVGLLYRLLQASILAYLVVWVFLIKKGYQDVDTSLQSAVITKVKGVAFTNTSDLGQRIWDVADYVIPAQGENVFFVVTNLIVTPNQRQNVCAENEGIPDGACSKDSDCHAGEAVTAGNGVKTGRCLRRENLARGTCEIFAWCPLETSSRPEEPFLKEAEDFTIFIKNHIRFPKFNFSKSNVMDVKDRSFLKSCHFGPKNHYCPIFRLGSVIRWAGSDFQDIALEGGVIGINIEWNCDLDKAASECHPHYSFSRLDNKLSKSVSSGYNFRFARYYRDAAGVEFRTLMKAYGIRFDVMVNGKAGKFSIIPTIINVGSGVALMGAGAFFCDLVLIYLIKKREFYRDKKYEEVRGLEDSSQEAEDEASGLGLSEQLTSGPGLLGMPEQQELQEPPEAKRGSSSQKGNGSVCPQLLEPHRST

SMILES: COc1cc(C(C)C)c(Oc2cnc(NCCN(C)C)nc2N)cc1I
- IC50 (P2X purinoceptor 3; read-out: pIC50 (converted)): 158 nM
- IC50 ([1]; read-out: pIC50 (converted)): 251 nM

SMILES: COc1cc(C(C)C)c(Oc2cnc(NCCN3CCOCC3)nc2N)cc1I
- IC50 (P2X purinoceptor 3; read-out: pIC50 (converted)): 158 nM
- IC50 ([1]; read-out: pIC50 (converted)): 398 nM

SMILES: COc1cc(C(C)C)c(Oc2cnc(NCC(F)(F)F)nc2N)cc1I
- IC50 (P2X purinoceptor 3; read-out: pIC50 (converted)): 79.4 nM
- IC50 ([1]; read-out: pIC50 (converted)): 200 nM

SMILES: COc1cc(C(C)C)c(Oc2cnc(NC(C)(C)CO)nc2N)cc1I
- IC50 ([1]; read-out: pIC50 (converted)): 794 nM

SMILES: COc1cc(C(C)C)c(Oc2cnc(N(C)C)nc2N)cc1I
- IC50 (P2X purinoceptor 3; read-out: pIC50 (converted)): > 10000 nM
- IC50 ([1]; read-out: pIC50 (converted)): > 10000 nM

Results, then the compound that gave them:

- IC50 (P2X purinoceptor 3; read-out: pIC50 (converted)): 100 nM
- IC50 ([1]; read-out: pIC50 (converted)): 316 nM
SMILES: COc1cc(C(C)C)c(Oc2cnc(NC3CCN(S(C)(=O)=O)CC3)nc2N)cc1I

- IC50 ([1]; read-out: pIC50 (converted)): 15.8 nM
SMILES: COc1cc(C(C)C)c(Oc2cnc(NCCO)nc2N)cc1I

- Cmax [2]: 104 ng/mL
- half-life [3]: 1.07 h
- half-life [4]: 3.88 h
- Papp A→B [5]: 9.43 ×10⁻⁶ cm/s
- AUC [6]: 495 ng·h/mL
- IC50 (P2X purinoceptor 5): > 10000 nM
- half-life [7]: 1.52 h
- clearance (Canis familiaris): 4.65 mL/min/kg
- AUC [8]: 237 ng·h/mL
- bioavailability [9]: 48%
- clearance (Rattus norvegicus): 71.9 mL/min/kg
- Tmax [10]: 0.167 h
- Tmax [11]: 0.833 h
- bioavailability [12]: 79%
- Cmax [13]: 554 ng/mL
SMILES: COc1cc(C(C)C)c(Oc2cnc(NC(CO)CO)nc2N)cc1I

- Cmax [2]: 64.3 ng/mL
- half-life [3]: 0.94 h
- half-life [4]: 1.5 h
- AUC [6]: 628 ng·h/mL
- half-life [7]: 2.09 h
- IC50 (P2X purinoceptor 3; read-out: IC50): 13 nM
- clearance (Canis familiaris): 13 mL/min/kg
- AUC [8]: 240 ng·h/mL
- IC50 ([1]; read-out: IC50): 25 nM
- IC50 ([1]; read-out: pIC50 (converted)): 39.8 nM
- bioavailability [9]: 39%
- clearance (Rattus norvegicus): 52.8 mL/min/kg
- Tmax [10]: 0.083 h
- Tmax [11]: 1.33 h
- bioavailability [12]: 72%
- Cmax [13]: 589 ng/mL
SMILES: COc1cc(C(C)C)c(Oc2cnc(N)nc2N)cc1I

Source: ChEMBL document CHEMBL1153300, “Identification and SAR of novel diaminopyrimidines. Part 2: The discovery of RO-51, a potent and selective, dual P2X(3)/P2X(2/3) antagonist for the treatment of pain” (Bioorg Med Chem Lett, 2009)
